# How the values were obtained:
# [1] = molecular target: T1, α2-adrenergic receptor ([3H] clonidine binding site in calf cerebral cortex) (Bos taurus, UniProt Q28838); experiment: α2-adrenergic receptor binding ([3H] clonidine binding site)
# T1 construct: from tissue; host or cells: calf cerebral cortex
# T1 sequence (Q28838 1-468): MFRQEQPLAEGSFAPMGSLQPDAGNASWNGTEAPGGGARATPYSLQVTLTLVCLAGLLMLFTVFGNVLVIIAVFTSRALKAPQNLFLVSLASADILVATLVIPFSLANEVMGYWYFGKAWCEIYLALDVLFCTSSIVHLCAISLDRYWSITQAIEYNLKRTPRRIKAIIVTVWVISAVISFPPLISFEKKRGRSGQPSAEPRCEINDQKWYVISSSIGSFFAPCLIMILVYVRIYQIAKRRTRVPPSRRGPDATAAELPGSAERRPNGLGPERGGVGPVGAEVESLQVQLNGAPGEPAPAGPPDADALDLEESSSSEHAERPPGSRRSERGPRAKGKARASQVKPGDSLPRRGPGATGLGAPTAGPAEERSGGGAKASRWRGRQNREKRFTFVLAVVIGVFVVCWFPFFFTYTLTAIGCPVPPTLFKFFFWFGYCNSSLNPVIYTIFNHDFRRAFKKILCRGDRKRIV
# Method: Binding to the α2 -adrenergic receptor was determined by the method of Lyon and Randall, Life Sciences, 26, 1121 (1980) and also is expressed in Table I as Ki representing the affinity of each compound for the [^3 H] clonidine binding site in calf cerebral cortex.
# [2] = molecular target: α1-adrenergic receptor ([3H] prazosin binding site in calf cerebral cortex); experiment: α1-adrenergic receptor binding ([3H] prazosin binding site)
# Method: The α1 - and α2 -adrenergic receptor binding as determined for some of the active compounds of this invention are shown in Table I.
# Extent of binding to the α1 -adrenergic receptor was determined by the method of Greengrass and Bremner, Eur. J. Pharmacol., 55, 323 (1979) and is expressed in Table I as Ki, representing the affinity of each compound for the [^3 H] prazosin binding site in calf cerebral cortex.
# [3] = system: α-Methyldopa (α-MD) Depression of Rat Locomotor Activity; experiment: Antagonism of α-methyldopa (α-MD) depression of rat locomotor activity; assay type: in vivo, Female Sprague-Dawley rats; conditions: 20-minute period
# Excerpt: Female Sprague-Dawley rats (Sprague-Dawley, Madison, Wis.) weighing 55-90 g were used in these studies. The test apparatus consisted of 10 activity chambers in a closed metal cabinet separated into individual compartments measuring 43×43 cm with a solid partition between each chamber. Ventilation in the cabinet was provided by two high speed fans, and background noise was supplied with a Grason-Stadler Noise Generator. The activity chambers were constructed from clear plexiglass cylinders, 30 cm high by 30 cm in diameter. Two infrared photocells were mounted at a height of 3 cm above the floor, the receivers being at the same height and directly opposite. Interruption of either of the beams registered independently as an activity count. The accumulated locomotor activity counts were stored in a microprocessor-based acquisition system and printed out at a preprogrammed interval on an ASR-33 Teletype unit. The decrease in locomotor activity caused by α-MD is most readily demonstrable during the time immediately following introduction of the rats into the test apparatus. Therefore, activity counts were recorded for a 20-minute period, beginning with placement of the animals in the test chambers. Animals with the various treatments were systematically rotated through the chambers. […] Dunnett's test was used for comparison of several treatment groups with a control group and the least significant difference test for comparison of the means of any two treatment groups. A P value of 0.05 (two-sided) was considered as indicating significance.
# Animals were pretreated (3 hours, 4 minutes) with α-MD (200 or 400 mg/kg, p.o.), and various doses of 8-(1-piperazinyl)imidazo[1,2-a]pyrazine.2HCl.H2 O (0.11-3.0 mg/kg, sc) 40 minutes prior to testing. Vehicles used in control animals were 1% methylcellulose (in which α-MD was suspended) and saline (in which the experimental compound was dissolved).
# [4] = system: clonidine-induced sedation in man; conditions: Autret et al., 1977; cited from earlier work
# [5] = system: sedation produced by clonidine; conditions: Drew et al., 1979; cited from earlier work
# [6] = system: locomotor depressant effects of methyldopa in rats; conditions: Clineschmidt et al., 1980; cited from earlier work
compound,measurement,setting,value
Clc1cn2ccnc2c(N2CCNCC2)n1 [Compound 1],Ki,[1],73 nM
same,Ki,[2],250 nM
Clc1cnc2c(N3CCNCC3)nccn12 [Compound 2],Ki,[1],240 nM
same,Ki,[2],2800 nM
"c1cn2ccnc2c(N2CCNCC2)n1 [Compound 3, 8-(1-piperazinyl)imidazo[1,2-a]pyrazine]",Ki,[1],15 nM
same,Ki,[2],3100 nM
CN1CCN(c2nc(Cl)cn3ccnc23)CC1 [Compound 4],Ki,[1],121 nM
same,Ki,[2],380 nM
"Cl.Cl.O.c1cn2ccnc2c(N2CCNCC2)n1 [Compound, 8-(1-piperazinyl)imidazo[1,2-a]pyrazine dihydrochloride hydrate]",locomotor activity (square roots of activity counts),"[3]; experiment 1, compound 0.11 mg/kg s.c. 40 min, with α-MD 400 mg/kg p.o.",5.1 ± 0.5
same,locomotor activity (square roots of activity counts),"[3]; experiment 1, compound 0.33 mg/kg s.c. 40 min, with α-MD 400 mg/kg p.o.",8.4 ± 0.9
same,locomotor activity (square roots of activity counts),"[3]; experiment 1, compound 1.0 mg/kg s.c. 40 min, with α-MD 400 mg/kg p.o.",11.7 ± 1.3
same,locomotor activity (square roots of activity counts),"[3]; experiment 1, compound 3 mg/kg s.c. 40 min after α-MD 400 mg/kg p.o.",11.6 ± 1.3
same,locomotor activity (square roots of activity counts),"[3]; experiment 2, compound 0.11 mg/kg s.c. 40 min, with α-MD 200 mg/kg p.o.",8.4 ± 1.1
same,locomotor activity (square roots of activity counts),"[3]; experiment 2, compound 0.33 mg/kg s.c. 40 min, with α-MD 200 mg/kg p.o.",9.5 ± 1.2
same,locomotor activity (square roots of activity counts),"[3]; experiment 2, compound 1.0 mg/kg s.c. 40 min, with α-MD 200 mg/kg p.o.",11.4 ± 1.2
same,locomotor activity (square roots of activity counts),"[3]; experiment 2, compound 3.0 mg/kg s.c. 40 min, with α-MD 200 mg/kg p.o.",12.2 ± 1.2
COC(=O)[C@@H]1[C@H]2C[C@H]3c4[nH]c5ccccc5c4CCN3C[C@@H]2CC[C@@H]1O [yohimbine],effect on clonidine-induced sedation in man,[4],reduce clonidine-induced sedation in man
same,effect on sedation produced by clonidine,[5],antagonizes the sedation produced by clonidine
same,effect on locomotor depressant effects of methyldopa,[6],antagonizes
"C[C@](N)(Cc1ccc(O)c(O)c1)C(=O)O [α-MD, α-Methyldopa, reference compound]",locomotor activity (square roots of activity counts),"[3]; experiment 1, α-MD 400 mg/kg p.o. 3 hr + saline s.c.",4.7 ± 0.7
same,locomotor activity (square roots of activity counts),"[3]; experiment 2, α-MD 200 mg/kg p.o. 3 hr + saline s.c.",6.8 ± 0.5

# From US4376772A, “Use of piperazinyl-imidazo[1,2-a]pyrazines in sedation” (Merck & Co., Inc., priority 1981, dated 1983)
